Converted amounts (≈) assume the structure as drawn. Like-named read-outs stand apart in the source and are kept apart here.
Tests used:
[1] = test system: E. faecalis; experiment: Microdilution antimicrobial susceptibility test (MIC); format: cell-based; conditions: Enterococcus faecalis; Table 2; 90% inhibition of growth
Experimental: (§1) Stock solutions of tested compounds were prepared in N,N-dimethylformamide (DMF) at a concentration of 5 mg/mL. Working solutions of the tested compounds were then prepared from the stock solutions, in Mueller-Hinton broth (MHB) with a starting concentration of 64 μg/mL.
(§2) Bacterial inocula were prepared from overnight culture (i.e., one fresh colony from agar plate in 5 ml MHB; H. influenzae was grown in MHB with the addition of yeast extract, haematin, and NAD), centrifuged 2×5 min/3000 rpm (for S. pneumoniae and H. influenzae, 2×10 min/3000 rpm), and dispensed in 5 ml of fresh MHB each time, such that the bacterial suspension is diluted to obtain 100 colony forming units (cfu) in a microplate well (100 μl total volume).
(§3) Microplate wells were filled with two-fold dilutions of test compound (50 μl), starting with 64 μg/ml. Wells were then filled with 50 μl of bacterial inoculum (final volume: 100 μl/well). The plates were incubated at 37° C. for 18-24 hours (S. pneumoniae was grown in a CO2-enriched atmosphere).

[2] = test system: H. influenzae; experiment: as above; format: cell-based; conditions: Haemophilus influenzae, read-out: MIC H. influenzae
Experimental: as §1, §2, §3

[3] = test system: M. catarrhalis; experiment: as above; format: cell-based; conditions: Moraxella catarrhalis; Table 2; 90% inhibition of growth
Experimental: as §1, §2, §3

[4] = test system: E. coli; experiment: as above; format: cell-based; conditions: Escherichia coli; Table 2; 90% inhibition of growth
Experimental: as §1, §2, §3

[5] = test system: P. aeruginosa; experiment: as above; format: cell-based; conditions: Pseudomonas aeruginosa; Table 2; 90% inhibition of growth
Experimental: as §1, §2, §3

[6] = test system: S. aureus; experiment: as above; format: cell-based; conditions: Staphylococcus aureus
Experimental: as §1, §2, §3

[7] = test system: S. pneumoniae; experiment: as above; format: cell-based; conditions: Streptococcus pneumoniae; Table 2; 90% inhibition of growth
Experimental: as §1, §2, §3

[8] = target: T1, bacterial DHFR (bDHFR) (Escherichia coli, UniProt P0ABQ4); experiment: DHFR enzyme assay, Ki determination, bacterial DHFR; format: biochemical, E. coli
T1 construct: gift of Eric Brown, McMaster University
Experimental: Human and Bacterial DHFR: E. coli DHFR was kindly provided by Eric Brown of MacMaster University.
(§4) Dihydrofolic acid and NADPH were purchased from Sigma. Enzyme assays were adapted for microtitre format from a previously published procedure (2, 3). All assays were performed in a 250 μl volume in 96-well microtitre plates. Typical assays consisted of 20 nM DHFR (human or E. coli), 100 μM NADPH, and 50 μM dihydrofolic acid in 100 mM HEPES pH 8, 10 mM KCl, and 10 mM MgCl2. The assay was monitored spectrophotometrically for the conversion of NADPH to NADP+, which results in a decrease in absorbance at 340 nm.
The reaction was initiated by the addition of 125 μl of 100 μM dihydrofolic acid. The final concentrations in the assay were 20 nM DHFR, 100 μM NADPH, 50 μM dihydrofolic acid, and a range of 500 μM to 20 nM inhibitor compound. The final DMSO concentration was 2% of the total volume. Reactions were monitored as described above.

[9] = test system: S. cerevisiae; experiment: Microdilution susceptibility test (MIC), yeast as indicator of cytotoxicity; format: cell-based; conditions: Saccharomyces cerevisiae; Table 2; 90% inhibition of growth
Source text: The following table of compounds of one aspect of the invention have potent antimicrobial activity against S. aureus bacteria and are anticipated to have physical-chemical properties similar to those of orally absorbed and bioavailable drugs and drug-like compounds. Antibacterial activity for a variety of bacterial species are shown (S. aureus, S. pneumoniae, E. faecalis, M. catarrhalis, and H. influenzae). The yeast cell (S. cerevisiae) in this panel of organisms is an indicator of potential cytotoxicity in mammalian cells.
as §1, §3

[10] = target: T2, human DHFR (hDHFR) (Homo sapiens, UniProt P00374); experiment: DHFR enzyme assay, Ki determination, human DHFR; format: biochemical; conditions: Table 3
T2 construct: result in the amplification of a 186 amino acid hDHFR coding region; made in house; host or cells: E. coli Top10
T2 sequence (P00374 1-187): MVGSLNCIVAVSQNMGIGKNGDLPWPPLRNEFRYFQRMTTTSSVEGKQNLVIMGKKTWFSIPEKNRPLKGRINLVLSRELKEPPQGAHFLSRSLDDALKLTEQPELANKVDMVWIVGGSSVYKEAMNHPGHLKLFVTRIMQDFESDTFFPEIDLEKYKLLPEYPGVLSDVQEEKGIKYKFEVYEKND
Experimental: The human DHFR cDNA was cloned by PCR from the Human Universal Quick-clone™ cDNA purchased from Clontech.
The PCR fragment was digested with restriction enzymes NdeI and HindIII, and then ligated into a derivative of the pKK223-3 expression vector (Amersham Pharmacia). The final expression vector (pFW96.2) was transformed into E. coli Top10 F40 and hDHFR protein was induced by the addition of 1 mM IPTG followed by incubation at 37° C. for 4 hrs. Recombinant human DHFR was purified based on a previously published procedure (2).
as §4
Five microliters of inhibitor compound in DMSO was added to 120 μl of enzyme solution (40 nM DHFR and 200 μM NADPH). The reaction was initiated by the addition of 125 μl of 100 μM dihydrofolic acid. The final concentrations in the assay were 20 nM DHFR, 100 μM NADPH, 50 μM dihydrofolic acid, and a range of 500 μM to 20 nM inhibitor compound. The final DMSO concentration was 2% of the total volume. Reactions were monitored as described above.
V=(Vmax[S])/(Km(1+I/Ki)+[S]), where S=dihydrofolate, Km=Michaelis constant for dihydrofolate, I=inhibitor concentration.

[11] = Table 2, 90% inhibition of growth
[12] = Table 2, 90% inhibition of growth, read-out: MIC S. aureus
[13] = MIC, average, read-out: S. aureus (μg/ml) avg
[14] = average, read-out: bDHFR Ki/(μM) avg

## COC(=O)c1ccc(N(C)Cc2cnc3nc(N)nc(N)c3n2)cc1 [Compound 17]
[1]
  MIC: < 2 µg/mL
[2]; [11]
  MIC: < 2 µg/mL
[3]
  MIC: < 2 µg/mL
[4]
  MIC: > 64 µg/mL
[5]
  MIC: > 64 µg/mL
[6]; [12]
  MIC: < 2 µg/mL
[7]
  MIC: < 2 µg/mL
[8]; Table 3, read-out: bDHFR Ki
  Ki: < 0.1 µM
[9]
  MIC: > 64 µg/mL

## Nc1nc(N)c2cnc(NCc3ccc(Oc4ccc(F)cc4)cc3)nc2n1 [Compound 66]
[10]
  Ki: > 500000 nM
[8]; Table 3, read-out: bDHFR Ki
  Ki: < 1 µM

## CN(Cc1cnc2nc(N)nc(N)c2n1)c1ccc(C(=O)NCc2ccccn2)cc1 [Compound 3]
[10]
  Ki: 1000 to 5000 nM
[1]
  MIC: 2 to 8 µg/mL (≈ 4.81 to 19.3 µM)
[2]; [11]
  MIC: 2 to 8 µg/mL (≈ 4.81 to 19.3 µM)
[3]
  MIC: 2 to 8 µg/mL (≈ 4.81 to 19.3 µM)
[4]
  MIC: > 64 µg/mL
[5]
  MIC: > 64 µg/mL
[6]; [12]
  MIC: 2 to 8 µg/mL (≈ 4.81 to 19.3 µM)
[7]
  MIC: 2 to 8 µg/mL (≈ 4.81 to 19.3 µM)
[8]; Table 3, read-out: bDHFR Ki
  Ki: < 0.1 µM
[9]
  MIC: > 64 µg/mL

## Nc1nc(N)c2nc(COc3cc([N+](=O)[O-])ccc3N)cnc2n1 [Compound 13]
[10]
  Ki: > 5000 nM
[8]; Table 3, read-out: bDHFR Ki
  Ki: 0.5 to 0.999 µM

## Nc1nc(N)c2nc(CNc3cccc([N+](=O)[O-])c3)cnc2n1 [Compound 7]
[10]
  Ki: > 5000 nM
[1]
  MIC: < 2 µg/mL
[2]; [11]
  MIC: < 2 µg/mL
[3]
  MIC: < 2 µg/mL
[4]
  MIC: > 64 µg/mL
[5]
  MIC: > 64 µg/mL
[6]; [12]
  MIC: < 2 µg/mL
[7]
  MIC: < 2 µg/mL
[8]; Table 3, read-out: bDHFR Ki
  Ki: 0.1 to 0.499 µM
[9]
  MIC: > 64 µg/mL

## Nc1nc(N)c2nc(CNc3cc(Cl)cc(Cl)c3)cnc2n1 [Compound 11]
[10]
  Ki: > 5000 nM
[1]
  MIC: < 2 µg/mL
[2]
  MIC: > 64 µg/mL
[3]
  MIC: < 2 µg/mL
[4]
  MIC: > 64 µg/mL
[5]
  MIC: > 64 µg/mL
[6]; [12]
  MIC: < 2 µg/mL
[7]
  MIC: < 2 µg/mL
[8]; Table 3, read-out: bDHFR Ki
  Ki: 0.5 to 0.999 µM
[9]
  MIC: > 64 µg/mL

## CCC(c1ccc(Cl)c2ccccc12)N(C)c1ncc2c(N)nc(N)nc2n1 (centres unmarked) [Compound 44]
[6]; [13]
  MIC: < 0.125 µg/mL
[8]; [14]
  Ki: 0.004 µM

## C[C@@H](c1ccc(F)c2ccccc12)N(C)c1ncc2c(N)nc(N)nc2n1 [Compound 38]
[6]; [13]
  MIC: 0.5 µg/mL (≈ 1.38 µM)
[8]; [14]
  Ki: 0.06 µM

## CCN(c1ncc2c(N)nc(N)nc2n1)C(C)c1cccc2ccccc12 (centres unmarked) [Compound 45]
[6]; [13]
  MIC: 2 µg/mL (≈ 5.56 µM)
[8]; [14]
  Ki: 0.008 µM

## Nc1nc(N)c2nc(CNc3ccc([N+](=O)[O-])cc3O)cnc2n1 [Compound 12]
[10]
  Ki: 1000 to 5000 nM
[2]; [11]
  MIC: 2 to 8 µg/mL (≈ 6.09 to 24.4 µM)
[3]
  MIC: 16 to 64 µg/mL (≈ 48.7 to 195 µM)
[4]
  MIC: > 64 µg/mL
[5]
  MIC: > 64 µg/mL
[6]; [12]
  MIC: > 64 µg/mL
[7]
  MIC: < 2 µg/mL
[8]; Table 3, read-out: bDHFR Ki
  Ki: 0.1 to 0.499 µM
[9]
  MIC: > 64 µg/mL

## CC(c1ccnc2ccccc12)N(C)c1ncc2c(N)nc(N)nc2n1 (centres unmarked) [Compound 39]
[6]; [13]
  MIC: 0.25 µg/mL (≈ 0.722 µM)
[8]; [14]
  Ki: 0.015 µM

## CC[C@H](c1cccc2ccccc12)N(C)c1ncc2c(N)nc(N)nc2n1 [Compound 42]
[6]; [13]
  MIC: < 0.125 µg/mL
[8]; [14]
  Ki: 0.004 µM

## CCN(c1ncc2c(N)nc(N)nc2n1)[C@H](C)c1ccc(C)c2ccccc12 [Compound 32]
[6]; [13]
  MIC: 0.5 µg/mL (≈ 1.34 µM)
[8]; [14]
  Ki: 0.011 µM

## CC(c1cccc2ccccc12)N(CCc1ccccc1)c1ncc2c(N)nc(N)nc2n1 (centres unmarked) [Compound 26]
[6]; [13]
  MIC: 1 µg/mL (≈ 2.3 µM)
[8]; [14]
  Ki: 0.02 µM

## CCN(c1ncc2c(N)nc(N)nc2n1)C(C)c1ccc(C)c2ccccc12 (centres unmarked) [Compound 50]
[6]; [13]
  MIC: 2 µg/mL (≈ 5.36 µM)
[8]; [14]
  Ki: 0.004 µM

## CCC(c1cccc2ccccc12)N(C)c1ncc2c(N)nc(N)nc2n1 (centres unmarked) [Compound 33]
[6]; [13]
  MIC: 0.015 µg/mL (≈ 0.0417 µM)
[8]; bDHFR Ki/(μM) avg, average
  Ki: 0.012 µM
[8]; second part of table, read-out: bDHFR
  Ki: 0.012 µM

## CC(c1cccc2ccccc12)N(C)c1ncc2c(N)nc(N)nc2n1 (centres unmarked) [Compound 24]
[6]; [13]
  MIC: 0.25 µg/mL (≈ 0.724 µM)
[8]; [14]
  Ki: 0.015 µM

## C=CCN(Cc1cnc2nc(N)nc(N)c2n1)c1ccccc1 [Compound 46]
[6]; [13]
  MIC: 2 µg/mL (≈ 6.51 µM)
[8]; [14]
  Ki: 0.093 µM

## CC(c1ccc2c3c(cccc13)CC2)N(C)c1ncc2c(N)nc(N)nc2n1 (centres unmarked) [Compound 28]
[6]; [13]
  MIC: < 0.125 µg/mL
[8]; [14]
  Ki: 0.02 µM

## CCCC(c1cccc2ccccc12)N(C)c1ncc2c(N)nc(N)nc2n1 (centres unmarked) [Compound 43]
[6]; [13]
  MIC: < 0.125 µg/mL
[8]; [14]
  Ki: 0.004 µM

## CC(c1c2c(cc3ccccc13)CCCC2)N(CC1CC1)c1ncc2c(N)nc(N)nc2n1 (centres unmarked) [Compound 31]
[6]; [13]
  MIC: 1 µg/mL (≈ 2.27 µM)
[8]; [14]
  Ki: 0.024 µM

## CN(Cc1cnc2nc(N)nc(N)c2n1)c1ccc(C(=O)NCCCCN)cc1 [Compound 2]
[10]
  Ki: 1000 to 5000 nM
[8]; Table 3, read-out: bDHFR Ki
  Ki: 0.1 to 0.499 µM

## CC(c1cccc2ccccc12)N(CCC(C)(C)C)c1ncc2c(N)nc(N)nc2n1 (centres unmarked) [Compound 60]
[6]; [13]
  MIC: 2 µg/mL (≈ 4.81 µM)
[8]; [14]
  Ki: 0.029 µM

## C=CCN(c1ncc2c(N)nc(N)nc2n1)C(C)c1cccc2ccccc12 (centres unmarked) [Compound 34]
[6]; [13]
  MIC: 1 µg/mL (≈ 2.69 µM)
[8]; [14]
  Ki: 0.014 µM

## CC(c1ccc(Cl)c2ccccc12)N(CC1CC1)c1ncc2c(N)nc(N)nc2n1 (centres unmarked) [Compound 55]
[6]; [13]
  MIC: 2 µg/mL (≈ 4.76 µM)
[8]; [14]
  Ki: 0.019 µM

## C[C@H](c1cccc2ccccc12)N(C)c1ncc2c(N)nc(N)nc2n1 [Compound 22]
[10]
  Ki: > 75000 nM
[6]; [13]
  MIC: < 0.125 µg/mL
[8]; Table 3, read-out: bDHFR Ki
  Ki: < 0.002 µM
[8]; [14]
  Ki: 0.002 µM

## CCc1ccc2ccccc2c1C(C)N(C)c1ncc2c(N)nc(N)nc2n1 (centres unmarked) [Compound 56]
[6]; [13]
  MIC: 2 µg/mL (≈ 5.36 µM)
[8]; [14]
  Ki: 0.093 µM
